SMILES strings stand for the structures.

For one assay, the system named is A-375. The assay can be described thus: Cytotoxicity against human A-375 cells assessed as reduction in cell viability by MTT assay. The class given is functional, cell-based. For orientation: Tetrazolium assays rely on reduction of a dye to a coloured formazan, in cell work by metabolically active cells.
In another assay the test system is L132. The assay can be described thus: Cytotoxicity against human L132 cells assessed as reduction in cell viability by MTT assay. The assay is classed as cell-based.
In a further assay the test system is SK-MEL-28. The assay can be described thus: Cytotoxicity against human SK-MEL-28 cells assessed as reduction in cell viability by MTT assay. The class given is functional, cell-based.
The target of assay [1] is Serine/threonine-protein kinase B-raf (Homo sapiens, UniProt P15056). The assay can be described thus: Inhibition of human BRAF using MEK1 as substrate by […] assay.
Assay [2] concerns the target RAF proto-oncogene serine/threonine-protein kinase (Homo sapiens, UniProt P04049). Description: Inhibition of human CRAF using MEK1 as substrate by [gamma-33P]-ATP assay.
Assay [3] has as its target Serine/threonine-protein kinase B-raf (Homo sapiens, UniProt P15056, V600E). Description: Inhibition of human BRAF V600E mutant using MEK1 as substrate by […] assay.

Sequence of RAF proto-oncogene serine/threonine-protein kinase (P04049 whole entry): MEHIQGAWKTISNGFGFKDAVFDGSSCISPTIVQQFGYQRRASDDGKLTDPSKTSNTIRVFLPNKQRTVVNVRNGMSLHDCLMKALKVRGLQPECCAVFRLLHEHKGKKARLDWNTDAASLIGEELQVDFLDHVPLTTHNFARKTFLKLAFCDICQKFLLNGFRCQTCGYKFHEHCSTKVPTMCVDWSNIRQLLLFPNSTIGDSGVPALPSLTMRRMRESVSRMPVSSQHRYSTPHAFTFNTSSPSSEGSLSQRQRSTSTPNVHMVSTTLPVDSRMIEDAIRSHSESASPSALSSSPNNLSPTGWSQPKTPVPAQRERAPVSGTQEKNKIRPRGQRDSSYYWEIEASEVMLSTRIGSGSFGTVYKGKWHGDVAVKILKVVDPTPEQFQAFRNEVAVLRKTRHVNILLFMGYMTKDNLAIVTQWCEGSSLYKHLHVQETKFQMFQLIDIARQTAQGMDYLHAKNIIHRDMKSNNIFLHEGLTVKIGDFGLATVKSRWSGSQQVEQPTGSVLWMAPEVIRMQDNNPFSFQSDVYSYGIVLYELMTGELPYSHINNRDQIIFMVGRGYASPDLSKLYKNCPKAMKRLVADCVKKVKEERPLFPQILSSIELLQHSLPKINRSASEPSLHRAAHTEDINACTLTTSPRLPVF
Sequence of Serine/threonine-protein kinase B-raf (Homo sapiens, UniProt P15056) (P15056 whole entry): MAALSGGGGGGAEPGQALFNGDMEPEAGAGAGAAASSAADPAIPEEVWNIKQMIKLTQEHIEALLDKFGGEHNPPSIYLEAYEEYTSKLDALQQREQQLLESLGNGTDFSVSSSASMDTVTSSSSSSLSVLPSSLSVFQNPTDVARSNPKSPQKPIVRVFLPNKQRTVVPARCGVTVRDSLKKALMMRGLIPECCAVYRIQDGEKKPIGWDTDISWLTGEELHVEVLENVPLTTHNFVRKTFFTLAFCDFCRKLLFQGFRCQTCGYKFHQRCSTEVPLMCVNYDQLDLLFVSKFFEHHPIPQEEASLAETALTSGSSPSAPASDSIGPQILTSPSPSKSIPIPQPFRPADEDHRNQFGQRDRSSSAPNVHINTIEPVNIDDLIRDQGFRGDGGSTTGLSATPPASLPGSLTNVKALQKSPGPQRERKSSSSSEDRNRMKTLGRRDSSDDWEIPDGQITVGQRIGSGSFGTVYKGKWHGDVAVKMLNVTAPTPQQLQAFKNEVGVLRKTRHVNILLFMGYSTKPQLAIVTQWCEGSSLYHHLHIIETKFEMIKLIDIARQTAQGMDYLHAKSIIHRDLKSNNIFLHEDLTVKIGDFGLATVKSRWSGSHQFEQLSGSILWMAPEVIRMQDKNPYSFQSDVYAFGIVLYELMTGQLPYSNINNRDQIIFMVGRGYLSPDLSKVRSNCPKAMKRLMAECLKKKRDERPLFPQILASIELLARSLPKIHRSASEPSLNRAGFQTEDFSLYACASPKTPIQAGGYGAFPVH
Sequence of Serine/threonine-protein kinase B-raf (Homo sapiens, UniProt P15056, V600E) (P15056 2-766 V600E limits assumed): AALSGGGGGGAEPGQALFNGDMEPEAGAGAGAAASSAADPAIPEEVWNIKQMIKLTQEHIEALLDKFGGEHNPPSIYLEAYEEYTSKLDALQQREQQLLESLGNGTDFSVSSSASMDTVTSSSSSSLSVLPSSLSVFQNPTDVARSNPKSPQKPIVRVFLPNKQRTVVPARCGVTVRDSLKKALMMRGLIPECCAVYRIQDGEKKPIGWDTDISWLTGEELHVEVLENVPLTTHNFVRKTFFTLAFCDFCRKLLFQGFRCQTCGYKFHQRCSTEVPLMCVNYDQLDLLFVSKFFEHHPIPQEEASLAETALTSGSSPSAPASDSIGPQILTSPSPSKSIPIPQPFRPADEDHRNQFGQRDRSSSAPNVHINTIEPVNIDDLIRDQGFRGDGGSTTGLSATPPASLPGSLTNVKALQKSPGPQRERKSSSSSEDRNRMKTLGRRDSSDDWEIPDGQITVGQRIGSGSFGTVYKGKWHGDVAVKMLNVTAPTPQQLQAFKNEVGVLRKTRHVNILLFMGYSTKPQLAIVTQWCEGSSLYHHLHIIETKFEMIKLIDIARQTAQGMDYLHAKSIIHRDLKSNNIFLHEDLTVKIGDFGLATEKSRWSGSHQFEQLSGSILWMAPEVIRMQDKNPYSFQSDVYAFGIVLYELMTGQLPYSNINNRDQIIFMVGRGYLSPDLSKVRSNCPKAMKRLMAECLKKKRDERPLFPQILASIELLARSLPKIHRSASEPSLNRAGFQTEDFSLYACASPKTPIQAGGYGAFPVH

With `Cc1ccc(C(=O)NCCNc2nccc(-c3c(-c4cccc(F)c4)nc4sccn34)n2)cc1`, the IC50 (commonly the concentration at which inhibition is half-maximal) was 5.88 µM in the assay on A-375, 245 µM in the assay with L132 and 18.8 µM with SK-MEL-28.

For the molecule `O=C(NCCCNc1nccc(-c2c(-c3cccc(F)c3)nc3sccn23)n1)c1ccc(Cl)cc1`, the values for the IC50 in the assay with A-375 and in the assay on SK-MEL-28 were 13.7 µM and above 20 µM, respectively.

In the case of `Cc1ccc(S(=O)(=O)NCCNc2nccc(-c3c(-c4cccc(F)c4)nc4sccn34)n2)cc1`, the figures for the IC50 with A-375 and in the assay with SK-MEL-28 were 15.4 µM and above 20 µM, respectively.

For `COc1ccc(S(=O)(=O)NCCCNc2nccc(-c3c(-c4cccc(F)c4)nc4sccn34)n2)cc1`, the IC50 in assay [1] came to 0.0551 µM; in the assay with A-375, 5.51 µM; in the assay with SK-MEL-28, 8.98 µM; in assay [2], 0.0261 µM; in assay [3], 0.0251 µM.

For `CNC(=O)c1cc(Oc2ccc(NC(=O)Nc3ccc(Cl)c(C(F)(F)F)c3)cc2)ccn1` [SORAFENIB], the IC50 worked out at 7.88 µM in the assay on A-375 and 9.45 µM in the assay on SK-MEL-28.
